Results as given in ChEMBL document CHEMBL5131399, “Broadening antifungal spectrum and improving metabolic stablity based on a scaffold strategy: Design, synthesis, and evaluation of novel 4-phenyl-4,5-dihydrooxazole derivatives as potent fungistatic and fungicidal reagents” (Eur J Med Chem, 2022).
Converted amounts (≈) assume the structure as drawn.

What was measured:
Type in all cases: functional
Candida tropicalis = assay: Antifungal activity against Candida tropicalis CGMCC 2.3739 assessed as fungal growth inhibition by NCCLS protocol based method
Candida parapsilosis = assay: Antifungal activity against Candida parapsilosis GIM2.190 assessed as fungal growth inhibition by NCCLS protocol based method; conditions: Lodderomyces parapsilosis
Cryptococcus neoformans = assay: Antifungal activity against Cryptococcus neoformans CGMCC 2.3161 assessed as fungal growth inhibition by NCCLS protocol based method
Candida albicans [1] = assay: Antifungal activity against Candida albicans ATCC SC5314 assessed as fungal growth inhibition by NCCLS protocol based method
Pichia kudriavzevii = assay: Antifungal activity against Candida krusei GIM2.1 assessed as fungal growth inhibition by NCCLS protocol based method
Aspergillus fumigatus = assay: Antifungal activity against Aspergillus fumigatus CGMCC3.7795 assessed as fungal growth inhibition by NCCLS protocol based method
Candida albicans [2] = assay: Antifungal activity against Candida albicans CPCC400616 assessed as fungal growth inhibition by NCCLS protocol based method
Nakaseomyces glabratus = assay: Antifungal activity against Candida glabrata clinical isolate assessed as fungal growth inhibition by NCCLS protocol based method
Candida albicans [3] = assay: Antifungal activity against FLC-resistant Candida albicans 103 assessed as fungal growth inhibition by NCCLS protocol based method
Candida albicans [4] = assay: Antifungal activity against FLC-resistant Candida albicans CaR assessed as fungal growth inhibition by NCCLS protocol based method
Candida albicans [5] = assay: Antifungal activity against FLC-resistant Candida albicans 904 assessed as fungal growth inhibition by NCCLS protocol based method
Candida albicans [6] = assay: Antifungal activity against FLC-resistant Candida albicans 632 assessed as fungal growth inhibition by NCCLS protocol based method
Candida albicans [7] = assay: Antifungal activity against FLC-resistant Candida albicans 311 assessed as fungal growth inhibition by NCCLS protocol based method
Candida albicans [8] = assay: Antifungal activity against FLC-resistant Candida albicans 901 assessed as fungal growth inhibition by NCCLS protocol based method
Candida albicans [9] = assay: Antifungal activity against FLC-resistant Candida albicans 100 assessed as fungal growth inhibition by NCCLS protocol based method

Structure (SMILES)	MIC (Candida tropicalis)	MIC (Candida parapsilosis)	MIC (Cryptococcus neoformans)	MIC (Candida albicans [1])	MIC (Pichia kudriavzevii)	MIC (Aspergillus fumigatus)	MIC (Candida albicans [2])	MIC (Nakaseomyces glabratus)	MIC (Candida albicans [3])	MIC (Candida albicans [4])	MIC (Candida albicans [5])	MIC (Candida albicans [6])	MIC (Candida albicans [7])	MIC (Candida albicans [8])	MIC (Candida albicans [9])
Clc1cccc(C2(Cn3ccnc3)COC(c3ccc(-c4ccccc4)s3)=N2)c1 (configuration not stated)	> 64 µg/mL	4 µg/mL (≈ 9.53 µM)	2 µg/mL (≈ 4.76 µM)	> 64 µg/mL	> 64 µg/mL	> 64 µg/mL	> 64 µg/mL	> 64 µg/mL	–	–	–	–	–	–	–
COc1cccc(C2(Cn3ccnc3)COC(c3ccc(-c4ccccc4)s3)=N2)c1 (configuration not stated)	1 µg/mL (≈ 2.41 µM)	> 64 µg/mL	> 64 µg/mL	0.125 µg/mL (≈ 0.301 µM)	> 64 µg/mL	> 64 µg/mL	1 µg/mL (≈ 2.41 µM)	> 64 µg/mL	–	–	–	–	–	–	–
COc1cccc(-c2ccc(C3=NC(Cn4ccnc4)(c4ccc(F)cc4)CO3)s2)c1 (configuration not stated)	> 64 µg/mL	> 64 µg/mL	> 64 µg/mL	> 64 µg/mL	> 64 µg/mL	> 64 µg/mL	> 64 µg/mL	> 64 µg/mL	–	–	–	–	–	–	–
FC(F)(F)c1ccc(C2(Cn3ccnc3)COC(c3ccc(-c4ccccc4)s3)=N2)cc1 (configuration not stated)	> 64 µg/mL	> 64 µg/mL	> 64 µg/mL	0.125 µg/mL (≈ 0.276 µM)	> 64 µg/mL	> 64 µg/mL	0.5 µg/mL (≈ 1.1 µM)	> 64 µg/mL	–	–	–	–	–	–	–
Cc1ccc(C2(Cn3ccnc3)COC(c3ccc(-c4ccccc4)s3)=N2)cc1 (configuration not stated)	8 µg/mL (≈ 20 µM)	1 µg/mL (≈ 2.5 µM)	0.25 µg/mL (≈ 0.626 µM)	0.125 µg/mL (≈ 0.313 µM)	> 64 µg/mL	16 µg/mL (≈ 40 µM)	0.125 µg/mL (≈ 0.313 µM)	> 64 µg/mL	4 µg/mL (≈ 10 µM)	2 µg/mL (≈ 5.01 µM)	4 µg/mL (≈ 10 µM)	16 µg/mL (≈ 40 µM)	8 µg/mL (≈ 20 µM)	2 µg/mL (≈ 5.01 µM)	0.5 µg/mL (≈ 1.25 µM)
CCc1ccccc1-c1ccc(C2=NC(Cn3ccnc3)(c3ccc(F)cc3)CO2)s1 (configuration not stated)	> 64 µg/mL	> 64 µg/mL	> 64 µg/mL	> 64 µg/mL	> 64 µg/mL	> 64 µg/mL	> 64 µg/mL	> 64 µg/mL	–	–	–	–	–	–	–
N#Cc1ccc(-c2ccc(C3=NC(Cn4ccnc4)(c4ccc(F)cc4)CO3)s2)cc1 (configuration not stated)	16 µg/mL (≈ 37.3 µM)	> 64 µg/mL	> 64 µg/mL	0.125 µg/mL (≈ 0.292 µM)	> 64 µg/mL	16 µg/mL (≈ 37.3 µM)	1 µg/mL (≈ 2.33 µM)	> 64 µg/mL	–	–	–	–	–	–	–
CC(C)c1ccccc1-c1ccc(C2=NC(Cn3ccnc3)(c3ccc(F)cc3)CO2)s1 (configuration not stated)	> 64 µg/mL	> 64 µg/mL	> 64 µg/mL	> 64 µg/mL	> 64 µg/mL	> 64 µg/mL	> 64 µg/mL	> 64 µg/mL	–	–	–	–	–	–	–
Fc1ccc(C2(Cn3ccnc3)COC(c3ccc(-c4cccc(OC(F)(F)F)c4)s3)=N2)cc1 (configuration not stated)	> 64 µg/mL	> 64 µg/mL	> 64 µg/mL	> 64 µg/mL	> 64 µg/mL	> 64 µg/mL	> 64 µg/mL	> 64 µg/mL	–	–	–	–	–	–	–
CCc1ccc(-c2ccc(C3=NC(Cn4ccnc4)(c4ccc(F)cc4)CO3)s2)cc1 (configuration not stated)	> 64 µg/mL	16 µg/mL (≈ 37.1 µM)	> 64 µg/mL	4 µg/mL (≈ 9.27 µM)	> 64 µg/mL	4 µg/mL (≈ 9.27 µM)	4 µg/mL (≈ 9.27 µM)	64 µg/mL (≈ 148 µM)	–	–	–	–	–	–	–
N#Cc1cccc(-c2ccc(C3=NC(Cn4ccnc4)(c4ccc(F)cc4)CO3)s2)c1 (configuration not stated)	1 µg/mL (≈ 2.33 µM)	> 64 µg/mL	2 µg/mL (≈ 4.67 µM)	0.5 µg/mL (≈ 1.17 µM)	> 64 µg/mL	16 µg/mL (≈ 37.3 µM)	0.5 µg/mL (≈ 1.17 µM)	> 64 µg/mL	–	–	–	–	–	–	–
Fc1ccc(C2(Cn3ccnc3)COC(c3ccc(-c4ccc(C(F)(F)F)cc4)s3)=N2)cc1 (configuration not stated)	> 64 µg/mL	> 64 µg/mL	> 64 µg/mL	> 64 µg/mL	> 64 µg/mL	> 64 µg/mL	> 64 µg/mL	> 64 µg/mL	–	–	–	–	–	–	–
Cc1cccc(C2(Cn3ccnc3)COC(c3ccc(-c4ccccc4)s3)=N2)c1 (configuration not stated)	4 µg/mL (≈ 10 µM)	> 64 µg/mL	0.5 µg/mL (≈ 1.25 µM)	0.125 µg/mL (≈ 0.313 µM)	> 64 µg/mL	> 64 µg/mL	2 µg/mL (≈ 5.01 µM)	> 64 µg/mL	4 µg/mL (≈ 10 µM)	8 µg/mL (≈ 20 µM)	4 µg/mL (≈ 10 µM)	4 µg/mL (≈ 10 µM)	4 µg/mL (≈ 10 µM)	8 µg/mL (≈ 20 µM)	0.5 µg/mL (≈ 1.25 µM)
Clc1ccc(C2(Cn3ccnc3)COC(c3ccc(-c4ccccc4)s3)=N2)cc1 (configuration not stated)	0.125 µg/mL (≈ 0.298 µM)	2 µg/mL (≈ 4.76 µM)	0.5 µg/mL (≈ 1.19 µM)	0.25 µg/mL (≈ 0.595 µM)	16 µg/mL (≈ 38.1 µM)	8 µg/mL (≈ 19.1 µM)	0.25 µg/mL (≈ 0.595 µM)	16 µg/mL (≈ 38.1 µM)	4 µg/mL (≈ 9.53 µM)	1 µg/mL (≈ 2.38 µM)	2 µg/mL (≈ 4.76 µM)	1 µg/mL (≈ 2.38 µM)	4 µg/mL (≈ 9.53 µM)	0.5 µg/mL (≈ 1.19 µM)	4 µg/mL (≈ 9.53 µM)
Fc1ccc(-c2ccc(C3=NC(Cn4ccnc4)(c4ccc(F)cc4)CO3)s2)cc1 (configuration not stated)	0.5 µg/mL (≈ 1.19 µM)	> 64 µg/mL	8 µg/mL (≈ 19 µM)	2 µg/mL (≈ 4.75 µM)	16 µg/mL (≈ 38 µM)	8 µg/mL (≈ 19 µM)	1 µg/mL (≈ 2.37 µM)	> 64 µg/mL	–	–	–	–	–	–	–
Fc1ccc(C2(Cn3ccnc3)COC(c3ccc(-c4ccc(OCC(F)(F)F)cc4)s3)=N2)cc1 (configuration not stated)	> 64 µg/mL	> 64 µg/mL	> 64 µg/mL	> 64 µg/mL	> 64 µg/mL	> 64 µg/mL	> 64 µg/mL	> 64 µg/mL	–	–	–	–	–	–	–
Fc1cccc(C2(Cn3ccnc3)COC(c3ccc(-c4ccccc4)s3)=N2)c1 (configuration not stated)	8 µg/mL (≈ 19.8 µM)	> 64 µg/mL	> 64 µg/mL	> 64 µg/mL	> 64 µg/mL	> 64 µg/mL	> 64 µg/mL	> 64 µg/mL	–	–	–	–	–	–	–
COc1ccc(-c2ccc(C3=NC(Cn4ccnc4)(c4ccc(F)cc4)CO3)s2)cc1 (configuration not stated)	> 64 µg/mL	> 64 µg/mL	> 64 µg/mL	> 64 µg/mL	> 64 µg/mL	> 64 µg/mL	> 64 µg/mL	> 64 µg/mL	–	–	–	–	–	–	–
CCOc1ccc(-c2ccc(C3=NC(Cn4ccnc4)(c4ccc(F)cc4)CO3)s2)cc1 (configuration not stated)	1 µg/mL (≈ 2.23 µM)	> 64 µg/mL	> 64 µg/mL	0.5 µg/mL (≈ 1.12 µM)	> 64 µg/mL	8 µg/mL (≈ 17.9 µM)	2 µg/mL (≈ 4.47 µM)	32 µg/mL (≈ 71.5 µM)	–	–	–	–	–	–	–
Fc1ccccc1C1(Cn2ccnc2)COC(c2ccc(-c3ccccc3)s2)=N1 (configuration not stated)	0.125 µg/mL (≈ 0.31 µM)	0.25 µg/mL (≈ 0.62 µM)	0.5 µg/mL (≈ 1.24 µM)	0.5 µg/mL (≈ 1.24 µM)	1 µg/mL (≈ 2.48 µM)	8 µg/mL (≈ 19.8 µM)	0.125 µg/mL (≈ 0.31 µM)	0.25 µg/mL (≈ 0.62 µM)	0.25 µg/mL (≈ 0.62 µM)	0.125 µg/mL (≈ 0.31 µM)	1 µg/mL (≈ 2.48 µM)	1 µg/mL (≈ 2.48 µM)	0.25 µg/mL (≈ 0.62 µM)	1 µg/mL (≈ 2.48 µM)	0.125 µg/mL (≈ 0.31 µM)
Cc1cccc(-c2ccc(C3=NC(Cn4ccnc4)(c4ccc(F)cc4)CO3)s2)c1 (configuration not stated)	4 µg/mL (≈ 9.58 µM)	16 µg/mL (≈ 38.3 µM)	16 µg/mL (≈ 38.3 µM)	0.5 µg/mL (≈ 1.2 µM)	> 64 µg/mL	32 µg/mL (≈ 76.6 µM)	0.25 µg/mL (≈ 0.599 µM)	> 64 µg/mL	–	–	–	–	–	–	–
Fc1ccc(C2(Cn3ccnc3)COC(c3ccc(-c4ccc(Cl)cc4)s3)=N2)cc1 (configuration not stated)	4 µg/mL (≈ 9.13 µM)	> 64 µg/mL	> 64 µg/mL	8 µg/mL (≈ 18.3 µM)	8 µg/mL (≈ 18.3 µM)	8 µg/mL (≈ 18.3 µM)	2 µg/mL (≈ 4.57 µM)	> 64 µg/mL	–	–	–	–	–	–	–
Fc1ccc(C2(Cn3ccnc3)COC(c3ccc(-c4ccccc4Cl)s3)=N2)cc1 (configuration not stated)	> 64 µg/mL	> 64 µg/mL	> 64 µg/mL	0.5 µg/mL (≈ 1.14 µM)	> 64 µg/mL	16 µg/mL (≈ 36.5 µM)	0.25 µg/mL (≈ 0.571 µM)	> 64 µg/mL	–	–	–	–	–	–	–
